According to patent EP3478687B1 (Daewoong Pharmaceutical Co., Ltd., priority 2016, dated 2018):
Structures can show the parent of a compound that is named as a salt.

Experiments:
[1] = biological target: T1, Recombinant purified human JAK3 (Homo sapiens, UniProt P52333); experiment: JAK3 kinase inhibitory activity, ADP-Glo kinase assay (Promega V9441); type: biochemical; conditions: ATP 5 uM, 4 ng JAK3 per reaction, 1 hour 30 °C, chemiluminescence
T1 construct: purchased Promega V9441
T1 sequence (P52333 1-1124): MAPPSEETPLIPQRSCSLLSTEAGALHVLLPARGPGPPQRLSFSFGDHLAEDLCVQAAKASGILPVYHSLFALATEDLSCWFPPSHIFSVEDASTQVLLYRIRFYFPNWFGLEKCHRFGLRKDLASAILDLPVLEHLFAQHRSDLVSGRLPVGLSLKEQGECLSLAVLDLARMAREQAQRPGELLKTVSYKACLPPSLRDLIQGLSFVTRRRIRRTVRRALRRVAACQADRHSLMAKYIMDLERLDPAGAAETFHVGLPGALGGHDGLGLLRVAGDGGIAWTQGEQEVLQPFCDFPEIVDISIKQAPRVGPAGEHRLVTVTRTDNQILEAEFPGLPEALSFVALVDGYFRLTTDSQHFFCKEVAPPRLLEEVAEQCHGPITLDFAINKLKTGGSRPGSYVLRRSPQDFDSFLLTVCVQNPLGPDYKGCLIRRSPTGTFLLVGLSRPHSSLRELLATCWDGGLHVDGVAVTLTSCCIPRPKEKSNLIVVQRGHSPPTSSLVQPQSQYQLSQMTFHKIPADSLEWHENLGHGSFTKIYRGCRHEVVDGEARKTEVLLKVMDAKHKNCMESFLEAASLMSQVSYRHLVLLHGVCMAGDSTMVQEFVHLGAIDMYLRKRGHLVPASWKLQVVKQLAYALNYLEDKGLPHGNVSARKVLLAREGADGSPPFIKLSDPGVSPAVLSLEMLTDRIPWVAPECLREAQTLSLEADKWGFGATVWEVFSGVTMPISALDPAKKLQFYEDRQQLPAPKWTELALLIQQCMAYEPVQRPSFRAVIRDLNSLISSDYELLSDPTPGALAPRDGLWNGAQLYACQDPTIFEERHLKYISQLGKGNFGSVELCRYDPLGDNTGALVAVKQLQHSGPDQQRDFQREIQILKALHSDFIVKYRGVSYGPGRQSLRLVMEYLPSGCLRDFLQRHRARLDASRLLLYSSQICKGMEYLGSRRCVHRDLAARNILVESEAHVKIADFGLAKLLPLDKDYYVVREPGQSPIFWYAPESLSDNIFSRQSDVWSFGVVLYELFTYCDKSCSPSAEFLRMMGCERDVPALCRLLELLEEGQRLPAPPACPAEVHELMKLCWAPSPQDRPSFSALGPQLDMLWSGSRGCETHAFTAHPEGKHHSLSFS
How it was run: (§1)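 Recombinant human kinases in Tris pH 7.5 buffer with MgCl2, BSA and DTT (MnCl2 added for BTK), 4 ng JAK3 or 8 ng BTK per reaction. Poly(Glu4,Tyr1) 0.2 µg/µL with 5 µM (JAK3) or 10 µM (BTK) ATP, 1% DMSO, 1 h at 30 °C. ADP-Glo luminescence used to derive IC50.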

[2] = biological target: T2, Recombinant purified human BTK (Homo sapiens, UniProt Q06187); experiment: BTK kinase inhibitory activity, ADP-Glo kinase assay (Promega V9071); type: biochemical; conditions: ATP 10 uM, 8 ng BTK per reaction, 1 hour 30 °C, chemiluminescence
T2 construct: purchased Promega V9071
How it was run: as §1

T2 sequence (Q06187 whole entry): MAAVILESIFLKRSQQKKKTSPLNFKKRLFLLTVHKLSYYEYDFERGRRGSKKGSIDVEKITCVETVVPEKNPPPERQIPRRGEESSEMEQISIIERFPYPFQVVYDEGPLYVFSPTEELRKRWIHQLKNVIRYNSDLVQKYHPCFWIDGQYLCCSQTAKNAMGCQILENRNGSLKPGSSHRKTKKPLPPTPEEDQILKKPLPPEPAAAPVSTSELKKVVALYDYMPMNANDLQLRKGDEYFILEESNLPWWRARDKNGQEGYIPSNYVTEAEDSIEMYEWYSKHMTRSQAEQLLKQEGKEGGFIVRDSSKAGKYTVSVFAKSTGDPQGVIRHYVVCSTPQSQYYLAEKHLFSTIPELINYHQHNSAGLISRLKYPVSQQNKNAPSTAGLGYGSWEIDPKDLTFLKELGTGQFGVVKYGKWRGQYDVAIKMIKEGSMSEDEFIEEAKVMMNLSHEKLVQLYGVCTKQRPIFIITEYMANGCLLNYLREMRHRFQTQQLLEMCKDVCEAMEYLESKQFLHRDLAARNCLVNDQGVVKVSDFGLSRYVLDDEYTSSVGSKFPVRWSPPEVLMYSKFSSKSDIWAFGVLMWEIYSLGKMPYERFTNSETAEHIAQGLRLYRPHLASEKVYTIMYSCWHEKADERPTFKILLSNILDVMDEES

| Compound | IC50 [1] [nM] | IC50 [2] [nM] |
| --- | --- | --- |
| C=CC(=O)N1CC[C@@H](F)[C@@H](Nc2nc(Nc3cnn(CC)c3)nc3[nH]ncc23)C1 [Example 77, 1-((3S,4R)-3-((6-((1-ethyl-1H-pyrazol-4-yl)amino)-1H-pyrazolo [3,4-d]pyrimidin-4-yl)amino)-4-fluoropiperidin-1-yl)prop-2-en-1-one] | 6 | 1.1 |
| C=CC(=O)N1CCC[C@@H](Nc2nc(Nc3cnn(C4CC4)c3)nc3[nH]cc(C)c23)C1 [Example 78, (R)-1-(3-((2-((1-cyclopropyl-1H-pyrazol-4-yl)amino)-5-methyl-7H-pyrrolo[2,3-d]pyrimidin-4-yl)amino)piperidin-1-yl)prop-2-en-1-one] | 0.7 | 11.5 |
| C=CC(=O)N1CCC[C@@H](Nc2nc(Nc3cnn(CC)c3)nc3[nH]cc(C)c23)C1 [Example 79, (R)-1-(3-((2-((1-ethyl-1H-pyrazol-4-yl)amino)-5-methyl-7H-pyrrolo[2,3-d]pyrimidin-4-yl)amino)piperidin-1-yl)prop-2-en-1-one] | 0.4 | 9.2 |
| C=CC(=O)N1CCC[C@@H](Nc2nc(Nc3ccc(-n4nc(C)cc4C)cc3)nc3[nH]cc(C)c23)C1 [Example 80, (R)-1-(3-((2-((4-(3,5-dimethyl-1H-pyrazol-1-yl)phenyl)amino)-5-methyl-7H-pyrrolo[2,3-d]pyrimidin-4-yl)amino)piperidin-1-yl)prop-2-en-1-one] | 8.4 | 33.3 |
| C=CC(=O)N1CCC[C@@H](Nc2nc(Nc3ccc4ncsc4c3)nc3[nH]cc(C)c23)C1 [Example 81, (R)-1-(3-((2-(benzo[d]thiazol-6-ylamino)-5-methyl-7H-pyrrolo[2,3-d]pyrimidin-4-yl)amino)piperidin-1-yl)prop-2-en-1-one] | 3.8 | 25.5 |
| C=CC(=O)N1CCC[C@@H](Nc2nc(Nc3cnn(CC)c3)nc3[nH]cc(F)c23)C1 [Example 82, (R)-1-(3-((2-((1-ethyl-1H-pyrazol-4-yl)amino)-5-fluoro-7H-pyrrolo[2,3-d]pyrimidin-4-yl)amino)piperidin-1-yl)prop-2-en-1-one] | 0.3 | 0.9 |
| C=CC(=O)N1CCC[C@@H](Nc2nc(Nc3cc(C)ns3)nc3[nH]cc(F)c23)C1 [Example 83, (R)-1-(3-((5-2-((3-methylisothiazol-5-yl)amino)-7H-pyrrolo[2,3-d]pyrimidin-4-yl)amino)piperidin-1-yl)prop-2-en-1-one] | 1.2 | 3.4 |
| C=CC(=O)N1CC[C@@H](C)[C@@H](Nc2nc(Nc3cnn(CC)c3)nc3[nH]cc(F)c23)C1 [Example 84, 1-((3R,4R)-3-((2-((1-ethyl-1H-pyrazol-4-yl)amino)-5-fluoro-7H-pyrrolo[2,3-d]pyrimidin-4-yl)amino)-4-methylpiperidin-1-yl)prop-2-en-1-one] | 3.8 | 6.6 |
| C=CC(=O)N1CCC[C@@H](Sc2nc(Nc3cnn(CC)c3)nc3[nH]cc(F)c23)C1 [Example 85, (R)-1-(3-((2-((1-ethyl-1H-pyrazol-4-yl)amino)-5-fluoro-7H-pyrrolo[2,3-d]pyrimidin-4-yl)thio)piperidin-1-yl)prop-2-en-1-one] | 1.5 | 2.2 |
| C=CC(=O)N1CC[C@@H](F)[C@@H](Nc2nc(Nc3cnn(CC)c3)nc3[nH]cc(F)c23)C1 [Example 86, 1-((3S,4R)-3-((2-((1-ethyl-1H-pyrazol-4-yl)amino)-5-fluoro-7H-pyrrolo[2,3-d]pyrimidin-4-yl)amino)-4-fluoropiperidin-1-yl)prop-2-en-1-one] | 0.4 | 1 |
| C=CC(=O)N1CCC[C@@H](N(C)c2nc(Nc3cnn(CC)c3)nc3[nH]cc(F)c23)C1 [Example 87, (R)-1-(3-((2-((1-ethyl-1H-pyrazol-4-yl)amino)-5-fluoro-7H-pyrrolo[2,3-d]pyrimidin-4-yl)(methyl)amino)piperidin-1-yl)prop-2-en-1-one] | 16.4 | 42.2 |
| C=CC(=O)N1CCC[C@@H](Nc2nc(Nc3cnn(CC)c3)nc3[nH]cc(C#N)c23)C1 [Example 88, (R)-4-((1-acryloylpiperidin-3-yl)amino)-2-((1-ethyl-1H-pyrazol-4-yl)amino)-7H-pyrrolo [2,3-d] pyrim idine-5-carbonitrile] | 0.2 | 1.1 |
| C=CC(=O)N1CCC[C@@H](Nc2nc(Nc3cnn(C4CC4)c3)nc3[nH]cc(C#N)c23)C1 [Example 89, (R)-4-((1-acryloylpiperidin-3-yl)amino)-2-((1-cyclopropyl-1H-pyrazol-4-yl)amino)-7H-pyrrolo[2,3-d]pyrimidine-5-carbonitrile] | 0.138 | 0.864 |
| C=CC(=O)N1CCC[C@@H](Nc2nc(Nc3cnn(CC(F)F)c3)nc3[nH]nc(Cl)c23)C1 [Example 90, (R)-1-(3-((3-chloro-6-((1-(2,2-difluoroethyl)-1H-pyrazol-4-yl)amino)-1H-pyrazolo [3,4-d]pyrimidin-4-yl)amino)piperidin-1-yl)prop-2-en-1-one hydrochloride] | 0.5 | 1 |
| C=CC(=O)N1CCC[C@@H](Nc2nc(Nc3cnn(CC)c3)nc3[nH]nc(Cl)c23)C1 [Example 91, (R)-1-(3-((3-chloro-6-((1-ethyl-1H-pyrazol-4-yl)amino)-1H-pyrazolo[3,4-d]pyrimidin-4-yl)amino)piperidin-1-yl)prop-2-en-1-one hydrochloride] | 1.1 | 1.1 |
| C=CC(=O)N1CC[C@@H](C)[C@@H](Nc2nc(Nc3cnn(CC)c3)nc3[nH]nc(Cl)c23)C1 [Example 92, 1-((3R,4R)-3-((3-chloro-6-((1-ethyl-1H-pyrazol-4-yl)amino)-1H-pyrazolo[3,4-d]pyrimidin-4-yl)amino)-4-methylpiperidin-1-yl)prop-2-en-1-one] | 4.5 | 2.1 |
| C=CC(=O)N1CC[C@@H](C)[C@@H](Nc2nc(Nc3cnn(CC(F)F)c3)nc3[nH]nc(Cl)c23)C1 [Example 93, 1-((3R,4R)-3-((3-chloro-6-((1-(2,2-difluoroethyl)-1H-pyrazol-4-yl)amino)-1H-pyrazolo [3,4-d]pyrimidin-4-yl)amino)-4-methylpiperidin-1-yl)prop-2-en-1-one] | 2 | 1.3 |
| C=CC(=O)N1CC[C@@H](C)[C@@H](Nc2nc(Nc3cnn(C4CC4)c3)nc3[nH]nc(Cl)c23)C1 [Example 94, 1-((3R,4R)-3-((3-chloro-6-((1-cyclopropyl-1H-pyrazol-4-yl)amino)-1H-pyrazolo[3,4-d]pyrimidin-4-yl)amino)-4-methylpiperidin-1-yl)prop-2-en-1-one] | 4.5 | 1.7 |
| C=CC(=O)N1CCC[C@@H](Nc2nc(Nc3cnn(CCN(CC)CC)c3)nc3[nH]cc(Cl)c23)C1 [Example 95, (R)-1-(3-((5-chloro-2-((1-(2-(diethylamino)ethyl)-1H-pyrazol-4-yl)amino)-7H-pyrrolo[2,3-d]pyrimidin-4-yl)amino)piperidin-1-yl)prop-2-en-1-one] | 0.5 | 5.9 |
| C=CC(=O)N1CCC[C@@H](Nc2nc(Nc3cnoc3)nc3[nH]cc(Cl)c23)C1 [Example 96, (R)-1-(3-((5-chloro-2-(isoxazol-4-ylamino)-7H-pyrrolo[2,3-d]pyrimidin-4-yl)amino)piperidin-1-yl)prop-2-en-1-one] | 0.7 | 24 |
| C=CC(=O)N1CCC[C@@H](Nc2nc(Nc3ccc(N4CCOCC4)cc3F)nc3[nH]cc(Cl)c23)C1 [Example 97] | > 80 | 708 |
| C=CC(=O)N1CCC[C@@H](Nc2nc(Nc3ccc(N4CCOCC4)c(F)c3)nc3[nH]cc(Cl)c23)C1 [Example 98, (R)-1-(3-((5-chloro-2-((3-fluoro-4-morpholinophenyl)amino)-7H-pyrrolo [2,3-d]pyrimidin-4-yl)amino)piperidin-1-yl)prop-2-en-1-one] | 2.4 | 14.1 |
| C=CC(=O)N1CCC[C@@H](N(C)c2nc(Nc3cnn(CC)c3)nc3[nH]ccc23)C1 [Example 101, (R)-1-(3-((2-((1-ethyl-1H-pyrazol-4-yl)amino)-7H-pyrrolo[2,3-d]pyrimidin-4-yl)(methyl)amino)piperidin-1-yl)prop-2-en-1-one] | 1.8 | 7.4 |
